Assay results: paper PMC5522529, “Mechanisms of Paradoxical Activation of AMPK by the Kinase Inhibitors SU6656 and Sorafenib” (Cell Chemical Biology, 2017)

Tests used:
Assay type in all cases: cell-based
human AMPK-α2 (WT) = human AMPK-α2 (WT) (Homo sapiens, UniProt P54646); assay: AMPK activity of FLAG-tagged WT AMPK-α2 expressed in HEK293 cells; conditions: SU6656 100 μM, phenformin 10 mM, A23187 10 μM, 1 hr
Description: (§1) Top: AMPK activity (mean ± SEM, n = 4); bottom: western blots showing phosphorylation of Thr172 on AMPK, and of ERK1/2, in cells treated with DMSO (control), SU6656 (100 μM), or PP2 (100 nM) (n = 2). (B) As (A), but in SYF cells. (C) HeLa cells were transfected with DNAs encoding GFP alone, or GFP fused to WT, Y261F/Y365F (FF), or Y36F/Y261F/Y365F (FFF) mutants of LKB1; cells were treated with increasing concentrations of SU6656 for 1 hr and AMPK activity determined (mean ± SEM, n = 4). See also Figure S1. (D) HEK293 cells were transfected with DNAs encoding FLAG-tagged AMPK-α2 with or without a Y436F mutation. Cells were incubated with DMSO (control), 100 μM SU6656, 10 mM phenformin, or 10 μM A23187 for 1 hr; AMPK complexes were immunoprecipitated using anti-FLAG antibody and assayed. The top panels show kinase activities (mean ± SD, n = 3); the bottom panels show blots from the same experiment (n = 2). In all panels, asterisks indicate significant differences from DMSO controls; in (D), there were no significant differences between the WT and Y463F mutant. **p < 0.01, ****p < 0.0001.

AMPK-α1 (WT) = target: T1, AMPK-α1 (WT) (Homo sapiens, UniProt Q13131); assay: AMPK activity of FLAG-tagged AMPK-α1 (WT) expressed in HEK293 cells; conditions: WT FLAG-α1 (comparison with AT mutant), 1 hr
T1 construct: we expressed FLAG-tagged full-length AMPK-α1 either as the WT or the AT mutant; expressed in transfected cells; host or cells: HEK293
T1 sequence (Q13131 whole entry): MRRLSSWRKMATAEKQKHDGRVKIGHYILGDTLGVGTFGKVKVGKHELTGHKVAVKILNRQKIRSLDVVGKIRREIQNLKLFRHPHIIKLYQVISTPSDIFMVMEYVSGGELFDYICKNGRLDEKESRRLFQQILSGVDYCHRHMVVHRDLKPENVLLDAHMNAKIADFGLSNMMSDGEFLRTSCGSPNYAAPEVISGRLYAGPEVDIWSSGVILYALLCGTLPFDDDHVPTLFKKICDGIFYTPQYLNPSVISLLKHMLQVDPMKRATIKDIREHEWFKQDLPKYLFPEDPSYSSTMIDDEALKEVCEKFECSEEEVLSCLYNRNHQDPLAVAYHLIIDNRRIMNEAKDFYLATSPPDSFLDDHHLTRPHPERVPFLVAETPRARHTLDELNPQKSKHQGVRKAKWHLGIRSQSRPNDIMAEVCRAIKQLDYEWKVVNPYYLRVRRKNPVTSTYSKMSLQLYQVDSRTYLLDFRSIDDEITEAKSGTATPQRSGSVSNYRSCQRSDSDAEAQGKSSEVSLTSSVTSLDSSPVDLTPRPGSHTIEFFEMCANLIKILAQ
T1 sequence (P54619 whole entry partner): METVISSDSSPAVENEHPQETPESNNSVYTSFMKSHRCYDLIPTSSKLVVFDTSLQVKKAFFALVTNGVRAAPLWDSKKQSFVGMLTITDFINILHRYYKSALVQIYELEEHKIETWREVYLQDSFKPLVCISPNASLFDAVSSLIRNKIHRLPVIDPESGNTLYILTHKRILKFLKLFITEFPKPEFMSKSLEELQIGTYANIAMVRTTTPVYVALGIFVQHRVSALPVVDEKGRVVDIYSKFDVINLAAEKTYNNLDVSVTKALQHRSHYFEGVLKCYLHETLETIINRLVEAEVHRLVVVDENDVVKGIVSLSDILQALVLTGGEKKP
Excerpt: (B) Western blotting of the same preparations as in (A). […] (D) Allosteric activation of WT and mutant α1β1γ1 complexes by MT 63-78, curve fitting as for (C). […] (E) Allosteric activation of WT and mutant α1β1γ1 complexes by AMP. Data were fitted to the equation for activation/inactivation by AMP ([Gowans et al., 2013]). […] (F) Activation of WT and AA mutant by various AMPK activators in HEK293 cells. […] FLAG-tagged complexes were isolated by immunoprecipitation and AMPK activity determined (mean ± SEM, n = 2).
We next expressed the FLAG-tagged WT or AA mutant of AMPK-α1 by transient transfection in HEK293 cells, treated with various agents, and measured AMPK activity in anti-FLAG immunoprecipitates. In Figure 4F, the results are expressed as absolute activities and are accompanied by blots showing Thr172 phosphorylation.
The α1-KD was precipitated using anti-FLAG and endogenous AMPK complexes using anti-α1 antibody, and activity determined. […] (B) Western blots (n = 2) using the indicated antibodies; samples from experiment in (A). (C) DNAs encoding FLAG-tagged AMPK-α1 (WT or AT mutant) were expressed by transient transfection in HEK293 cells, the cells treated with increasing concentrations of SU6656 for 1 hr, AMPK complexes precipitated with anti-FLAG, and activity measured.

[1] = target: T2, endogenous full-length α1 complexes (Homo sapiens, UniProt Q13131); assay: Activity of endogenous full-length α1 complexes in HEK293 cells; conditions: 1 hr
T2 construct: endogenous in cells
T2 sequence (Q13131 whole entry): as the sequence (Q13131 whole entry) above
T2 sequence (P54619 whole entry partner): as the sequence (P54619 whole entry partner) above
Excerpt: (§2) We next expressed an FLAG-tagged α1 kinase domain (α1-KD, residues 1–312) by transient transfection in HEK293 cells, treated the cells with various AMPK activators, and then assayed both the expressed α1-KD (precipitated using anti-FLAG) and endogenous full-length α1 complexes (precipitated using anti-α1 antibodies recognizing an epitope outside the α1-KD). […] This was also observed with A23187, as expected since this ionophore increases intracellular Ca^2+ and activates the alternate upstream kinase CaMKK2.
(§3) The α1-KD was precipitated using anti-FLAG and endogenous AMPK complexes using anti-α1 antibody, and activity determined. Results (mean ± SD, n = 2) are expressed relative to activities in DMSO controls. (B) Western blots (n = 2) using the indicated antibodies; samples from experiment in (A). (C) DNAs encoding FLAG-tagged AMPK-α1 (WT or AT mutant) were expressed by transient transfection in HEK293 cells, the cells treated with increasing concentrations of SU6656 for 1 hr, AMPK complexes precipitated with anti-FLAG, and activity measured. Results (mean ± SD, n = 3) are expressed relative to the DMSO control. […] Results (mean ± SD, n = 3) are expressed relative to the DMSO control. **p < 0.01, ***p < 0.001, ****p < 0.0001, ^†††p < 0.001; ns, not significant.

[2] = target: T3, α1 kinase domain (α1-KD, residues 1–312) (Homo sapiens, UniProt Q13131); assay: Activity of FLAG-tagged α1 kinase domain expressed in HEK293 cells; conditions: 1 hr
T3 construct: amplifying residues 1-312 with an N-terminal FLAG-tag; expressed in transfected cells; host or cells: HEK293 (transient transfection, pcDNA5 FRT)
T3 sequence (Q13131 1-312): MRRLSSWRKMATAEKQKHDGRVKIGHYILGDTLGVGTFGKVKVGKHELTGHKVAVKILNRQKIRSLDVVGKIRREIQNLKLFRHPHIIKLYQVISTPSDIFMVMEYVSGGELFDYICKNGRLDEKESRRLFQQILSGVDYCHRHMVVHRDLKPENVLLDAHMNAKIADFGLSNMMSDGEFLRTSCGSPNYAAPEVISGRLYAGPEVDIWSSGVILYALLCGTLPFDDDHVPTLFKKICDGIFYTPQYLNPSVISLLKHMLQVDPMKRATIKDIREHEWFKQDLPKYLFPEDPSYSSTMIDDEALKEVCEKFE
Excerpt: as §2, §3
A plasmid encoding the AMPK-α2 kinase domain (α2-KD) was made by amplifying residues 1-310 with 5' BamH1 and 3' Xho1 sites, the resulting PCR product was cloned into pGEX6P2. Point mutations were generated using the Quikchange II site-directed mutagenesis kit (Stratagene) and confirmed by DNA sequencing.

AMPK-α1 AT mutant = target: T4, AMPK-α1 AT mutant (Homo sapiens, UniProt Q13131, A167T); assay: AMPK activity of FLAG-tagged AMPK-α1 AT mutant expressed in HEK293 cells; conditions: AT mutant FLAG-α1, 1 hr
T4 construct: we expressed FLAG-tagged full-length AMPK-α1 either as the WT or the AT mutant; expressed in transfected cells; host or cells: HEK293 (transient transfection)
T4 sequence (Q13131 whole entry A167T): as the sequence (Q13131 whole entry) above, with A167T counted along it
T4 sequence (P54619 whole entry partner): as the sequence (P54619 whole entry partner) above
Excerpt: as §3
To confirm that it acted by binding at the catalytic site, we expressed FLAG-tagged full-length AMPK-α1 either as the WT or the AT mutant.

[3] = target: T5, human AMPK-α2 Y436F mutant (Homo sapiens, UniProt P54646, Y436F); assay: AMPK activity of FLAG-tagged Y436F AMPK-α2 expressed in HEK293 cells; conditions: SU6656 100 μM, phenformin 10 mM, A23187 10 μM, 1 hr
T5 construct: expressed in transfected cells; host or cells: HEK293 (transient transfection)
T5 sequence (P54646 whole entry Y436F): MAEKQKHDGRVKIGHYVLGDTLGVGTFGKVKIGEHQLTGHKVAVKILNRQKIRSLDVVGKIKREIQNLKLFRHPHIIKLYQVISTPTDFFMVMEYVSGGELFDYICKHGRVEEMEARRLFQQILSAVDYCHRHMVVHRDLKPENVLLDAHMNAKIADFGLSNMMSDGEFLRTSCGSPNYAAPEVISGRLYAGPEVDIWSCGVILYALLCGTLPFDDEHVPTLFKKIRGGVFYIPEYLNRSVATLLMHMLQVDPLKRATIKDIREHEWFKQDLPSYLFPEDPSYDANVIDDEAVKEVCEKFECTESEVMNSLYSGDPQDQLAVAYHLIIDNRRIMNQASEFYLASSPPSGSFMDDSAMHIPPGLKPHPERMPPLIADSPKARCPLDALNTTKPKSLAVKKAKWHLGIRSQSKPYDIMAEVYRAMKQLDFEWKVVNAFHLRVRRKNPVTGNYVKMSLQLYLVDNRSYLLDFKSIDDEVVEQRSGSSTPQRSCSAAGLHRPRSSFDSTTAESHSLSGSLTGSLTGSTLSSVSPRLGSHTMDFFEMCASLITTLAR
T5 sequence (P54619 whole entry partner): as the sequence (P54619 whole entry partner) above
Description: as §1

human AMPK-α2 (WT), sequence (P54646 whole entry, the tested form may be a part): as the sequence (P54646 whole entry Y436F) above, with F436Y counted along it
human AMPK-α2 (WT), sequence (P54619 whole entry partner, the tested form may be a part): as the sequence (P54619 whole entry partner) above

SMILES: CNc1ccc2oc(C[C@H]3O[C@@]4(CC[C@H]3C)O[C@H]([C@H](C)C(=O)c3ccc[nH]3)[C@H](C)C[C@H]4C)nc2c1C(=O)O [A23187]
- AMPK activity in anti-FLAG immunoprecipitates (human AMPK-α2 (WT)): all activated AMPK
- AMPK activity (AMPK-α1 (WT)): activated equally well
- kinase activity / Thr172 phosphorylation [1]: also observed
- kinase activity / Thr172 phosphorylation [2]: also observed
- AMPK activity (AMPK-α1 AT mutant): activated equally well
- AMPK activation response with Y436F mutation [3]: unaffected by the Y436F mutation
